Here are results for three molecules from PMC7994819, “Pharmacokinetics and metabolomics investigation of an orally modified formula of standardized Centella asiatica extract in healthy volunteers” (Scientific Reports, 2021).

Read-outs that look alike come from different tables or passages of the source. Bounds are passed on as bounds.

As a reminder, the AUC is concentration integrated over time. By Cmax is commonly meant the peak of the concentration-time curve.

Series [1] is described as follows: Urine and feces excretion after oral modified formula ECa 233 capsules (LC–MS/MS). It is filed as in vivo, human (healthy Thai volunteers). As to the method: This was a single-center, with an open-label, two-sequence of dosages (250 and 500 mg), two-periods of study (single and multiple dose) conducted in fasting condition (Fig. 1). […] All blood samples were centrifuged at 4 °C, 3200 × g for 10 min. […] Feces were also collected from one of the volunteers for detecting the possible presence of any eliminated compounds. Feces samples were collected each time that a volunteer defecated on day 1-3, 4-6 and 7-9 during the study period. These samples were immediately fixed with methanol and prepared by our previously described method of protein precipitation. […] Plasma, urine and fecal samples were then stored at - 80 °C until analysis. Sample preparation was performed by protein precipitation with two internal standards (glycerrhizin and […]) to correct the quantitative analysis of parent compounds and of their metabolites. Briefly, 200 μL of methanol was added followed by vortex mixing with 50 μL of each sample for 10 min and then centrifuged at 12,000 × g, 4 °C, 10 min. […] The MS/MS system was operated using an ESI source in negative mode with MRM.

A short description of series [2]: Clinical pharmacokinetics in plasma (LC–MS/MS, non-compartmental analysis) after oral modified formula ECa 233 capsules. It is filed as in vivo, human (healthy Thai volunteers). The protocol:
This was a single-center, with an open-label, two-sequence of dosages (250 and 500 mg), two-periods of study (single and multiple dose) conducted in fasting condition (Fig. 1). […] All blood samples were centrifuged at 4 °C, 3200 × g for 10 min. […] Feces were also collected from one of the volunteers for detecting the possible presence of any eliminated compounds. Feces samples were collected each time that a volunteer defecated on day 1-3, 4-6 and 7-9 during the study period. These samples were immediately fixed with methanol and prepared by our previously described method of protein precipitation. […] Plasma, urine and fecal samples were then stored at - 80 °C until analysis. […] Then they had another set of blood and urine samples collected similar to the single dose study. […] Sample preparation was performed by protein precipitation with two internal standards (glycerrhizin and […]) to correct the quantitative analysis of parent compounds and of their metabolites. Briefly, 200 μL of methanol was added followed by vortex mixing with 50 μL of each sample for 10 min and then centrifuged at 12,000 × g, 4 °C, 10 min. Quantitative determination of the parent compounds and their active metabolites in plasma and urine were carried out by using liquid chromatography tandem mass spectrometry (LC-MS/MS): LCMS-8060 (Shimadzu Corp. Japan) according to a previously validated and published bioanalytical method. […] The MS/MS system was operated using an ESI source in negative mode with MRM. For m/z transition; […] Non-compartmental analysis was applied to determine pharmacokinetic parameters and performed by PK solutions software (version 2.0). […] The apparent clearance (Cl/F) after oral administration was calculated as Cl/F = Dose/AUC, where F is the absolute oral bioavailability. The apparent volume of distribution (Vd/F) was estimated using Vd/F = Dose/(AUC × kel). The Cmax and Tmax were determined directly from the observed concentration-time curve.

For series [3] the following is noted: in vivo; cited from earlier work.
The mark [4] stands for this setting: human, plasma, po, 250 mg, plasma, multiple dose oral, Day 7 (T0-72 h), ECa 233 250 mg daily, mean ± SD, n=12, read-out: AUC.
Where [5] appears, read: human, plasma, po, 250 mg, plasma, multiple dose oral, Day 7 (T0-72 h), ECa 233 250 mg daily, mean ± SD, n=12, read-out: Cmax.
Setting [6] is: human, plasma, po, 250 mg, plasma, multiple dose oral, Day 7 (T0-72 h), ECa 233 250 mg daily, median [IQR], n=12, read-out: Tmax.
[7] abbreviates: human, plasma, po, 250 mg, plasma, single dose oral, Day 1 (T0-24 h), ECa 233 250 mg, mean ± SD, n=12, read-out: AUC.
Where [8] appears, read: human, plasma, po, 250 mg, plasma, single dose oral, Day 1 (T0-24 h), ECa 233 250 mg, mean ± SD, n=12, read-out: Cmax.
[9] abbreviates: human, plasma, po, 250 mg, plasma, single dose oral, Day 1 (T0-24 h), ECa 233 250 mg, median [IQR], n=12, read-out: Tmax.
Where [10] appears, read: human, plasma, po, 500 mg, plasma, multiple dose oral, Day 7 (T0-72 h), ECa 233 500 mg daily, mean ± SD, n=11, read-out: AUC.
The mark [11] stands for this setting: human, plasma, po, 500 mg, plasma, multiple dose oral, Day 7 (T0-72 h), ECa 233 500 mg daily, mean ± SD, n=11, read-out: Cmax.
The mark [12] stands for this setting: human, plasma, po, 500 mg, plasma, multiple dose oral, Day 7 (T0-72 h), ECa 233 500 mg daily, median [IQR], n=11, read-out: Tmax.
Where [13] appears, read: human, plasma, po, 500 mg, plasma, single dose oral, Day 1 (T0-24 h), ECa 233 500 mg, mean ± SD, n=11, read-out: AUC.
Where [14] appears, read: human, plasma, po, 500 mg, plasma, single dose oral, Day 1 (T0-24 h), ECa 233 500 mg, mean ± SD, n=11, read-out: Cmax.
Where [15] appears, read: human, plasma, po, 500 mg, plasma, single dose oral, Day 1 (T0-24 h), ECa 233 500 mg, median [IQR], n=11, read-out: Tmax.
The mark [16] stands for this setting: plasma, oral modified formula ECa 233 capsules.

As for `C[C@H]1[C@H](C)CC[C@]2(C(=O)O)CC[C@]3(C)C(=CC[C@@H]4[C@@]5(C)C[C@@H](O)[C@H](O)[C@@](C)(CO)[C@@H]5CC[C@]43C)[C@H]12` [ASA, Asiatic acid], the presence in feces entry in series [1] (fecal samples from one volunteer) is listed as “found in the feces”. Further, the elimination into urine entry in series [1] (urine 0–24 h after oral dosing of 250 or 500 mg ECa 233) is reported as “absence of the metabolites in the urine”. Further, the exposure (AUC) in series [2] (setting [4]) worked out at 1010 ± 221 ng·h/mL; in series [2] (setting [7]) it was 648 ± 117 ng·h/mL; in series [2] (setting [10]) it was 1390 ± 333 ng·h/mL; in series [2] (setting [13]), 733 ± 150 ng·h/mL. Further, the Cmax in series [2] (setting [5]) stood at 78.2 ± 26.4 ng/mL; in series [2] (setting [8]) it was 79.8 ± 19.3 ng/mL; in series [2] (setting [11]), 170 ± 53.8 ng/mL; in series [2] (setting [14]), 102 ± 20.8 ng/mL. In addition, the Tmax in series [2] (setting [6]), in series [2] (setting [9]), in series [2] (setting [12]) and in series [2] (setting [15]) was 1.5 h throughout. In addition, in series [2] (setting [16]), the “time after dosing at which Cmax was observed” value (shortened to “time after dosing”) fell in the range of 1 to 2 h.

As to `C[C@H]1[C@H](C)CC[C@]2(C(=O)O)CC[C@]3(C)C(=CC[C@@H]4[C@@]5(C)C[C@@H](O)[C@H](O)[C@@](C)(CO)[C@@H]5[C@H](O)C[C@]43C)[C@H]12` [MDA, Madecassic acid], the AUC in series [2] (setting [4]) was determined as 437 ± 175 ng·h/mL; in series [2] (setting [7]) it was 410 ± 100 ng·h/mL; in series [2] (setting [10]) it was 516 ± 157 ng·h/mL; in series [2] (setting [13]), 476 ± 117 ng·h/mL. In addition, the Cmax in series [2] (setting [5]) came out at 61.4 ± 20.5 ng/mL; in series [2] (setting [8]) it was 66.1 ± 17.1 ng/mL; in series [2] (setting [11]), 99.8 ± 27.6 ng/mL; in series [2] (setting [14]), 72.3 ± 16.3 ng/mL. In addition, the Tmax in series [2] (setting [6]) stood at 2 h; in series [2] (setting [9]) it was 1.5 h; in series [2] (setting [12]) it was 1.5 h; in series [2] (setting [15]), 1.5 h. The “time after dosing” value in series [2] (setting [16]) was in the range of 1 to 2 h.

In the case of Madecassoside [MDS], in series [3], the “excretion (0–72 h) in feces” value was 24.68% and the “excretion (0–72 h) in urine” value is recorded as 0.25%. The “time after dosing” value in series [2] (human, in vivo, po) is no more than 1 h. Moreover, in series [2] (human, in vivo, po, 250 mg), the AUC came out at 75.38 ± 26.60 ng·h/mL, the Cmax was 9.57 ± 3.34 ng/mL and the Tmax is 1 [0.5] h. In addition, in series [2] (human, in vivo, po, 500 mg), the AUC was 141.16 ± 41.15 ng·h/mL, the Cmax is 12.73 ± 2.73 ng/mL and the Tmax was 1 [0.5] h.
